Test results published in patent US20160067161A1, “COSMETIC OR PHARMACEUTICAL COMPOSITION FOR RESISTING SKIN AGEING THROUGH AN ANTI-INFLAMMATORY ACTION” (GIULIANI S.P.A., priority 2013, published 2016).

Assays:
[1] = tested on: TNF-α; experiment: Anti-inflammatory test: TNF-α gene expression by qRT-PCR in LPS-treated NCTC2544 keratinocytes; format: cell-based, human; conditions: for TNF-α expression: NCTC2544 cells + LPS 5 μg/ml, 16 hours of treatment
Experimental: An immortalized line of human keratinocytes NCTC2544 is used (Perry, V. P., Sanford, K. K., Evans, V. J., Hyatt, G. W., Earle, W. R., 1957: Establishment of clones of epithelial cells from human skin. J Natl Cancer Inst. 18 (5): 709-717) cultured in sterile flasks ([…]), incubated at 37° C. in a humid atmosphere at 5% CO2 in MEM (Minimum Essential Medium) added with bovine fetal serum (FBS), 2 mm L-glutamine, 1% non-essential amino acids, in the presence of 1% penicillin and streptomycin.
A 1:3 split is done every 2 days upon achieving the monolayer by washing with 1× PBS (phosphate buffer without Ca^2+ and Mg^2+) and detachment of cells with a trypsin-EDTA solution at 37° C. for 2 minutes.
Negative control: human keratinocytes NCTC2544 cultured in EMEM (EBSS) at 2.5% FBS, supplemented with 1% L-glutamine 2 mM, 1% solution of amino acids and 1% mixture of penicillin (10,000 U/ml)/streptomycin (10,000 Ug/ml) at 37° C., 5% CO2. Positive control: human keratinocytes NCTC2544 treated with lipopolysaccharide (LPS, 5 μg/ml) in EMEM (EBSS) at 2.5% FBS, supplemented with 1% L-glutamine 2 mM, 1% solution of amino acids and 1% mixture of penicillin (10,000 U/ml)/streptomycin (10,000 Ug/ml) at 37° C., 5% CO2.
The gene expression of TNF-α on NCTC2544 cells treated with the samples was evaluated by qRT-PCR.
The analysis of gene expression involves four steps:
1. Treatment of cells with the samples for 16 and 24 hours;
3. Retrotranscription in cDNA;
In the experimental conditions, in relation with the results obtained in a previous MTT test, samples of spermidine and N^1-methyl-spermidine were tested at the following concentrations: 1 μM, 500 nM and 1 mM (final concentration in the medium). Said positive and negative controls were also tested.
When the human keratinocyte cells NCTC 2544 have reached about 80% confluence, they are detached with trypsin/EDTA and seeded at a density of 1×10^6 cells/ml in 12-well plates and incubated at 37° C., 5% CO2 (24 h).
The above samples of spermidine and N^1-methyl-spermidine were dissolved in EMEM, supplemented with 2.5% FCS, 1% 2 mM L-glutamine, 1% NEAA solution and 1% penicillin (10,000 U/ml)/streptomycin ([…]).
The controls, containing only culture medium (negative control) and culture medium plus LPS ([…]) (positive control), were included in each plate. The cells were exposed to the action of the samples of spermidine and N^1-methyl-spermidine at the above concentrations of 1 μM, 500 nM and 1 mM: a total of six samples.
LPS at a concentration of 5 μg/ml was added to each well (except in the negative control). Each sample was tested in replicate.
With reference to the graphs in FIGS. 4 and 5, samples of further compounds of the invention as specified below were subjected to anti-inflammatory test on an immortalized line of human keratinocytes NCTC2544 substantially as described above, to the general part whereof reference shall be made.
The controls containing only culture medium (negative control) and culture medium plus LPS (5 μg/ml) (positive control), were included in each plate.
The cells were exposed to the action of samples of the compounds N^1-ethylspermidine, N^1-propylspermidine, N^1-isobutylspermidine at the concentrations of 1 nM and 1 μM.
The gene expression data were obtained by RT-PCR.

[2] = tested on: NCTC 2544 cells; experiment: ROS antioxidant test (DCFH-DA spectrofluorometry) on NCTC 2544 cells; format: cell-based, human; conditions: 500 μM, 1.5 hours (FIG. 3); for decrease in intracellular concentration of ROS produced compared with H2O2 control: test compound at 500 nM, 1 μM, 1 mM, α-tocopherol 250 μg/ml (580 μM)
Text: Samples of a compound of the invention, N^1-methylspermidine trihydrochloride salt, i.e. N-(3-aminopropyl)-N^1-methyl-1,4-butanediamine 3HCl, were subjected to the following antioxidant test to reactive oxygen species (ROS).
The production of ROS was monitored spectrofluorometrically using 2′,7′-dichlorofluorescein diacetate (DCFH-DA), as described by Tobi et al. (Tobi S E, Paul N, T McMillan J. J Photochem Photobiol, B 2000: 57: 102-112).
The NCTC 2544 cells (about 80% confluence) were detached with trypsin/EDTA and seeded at a density of 5×10^4 cells per well in 96-well plates. Subsequently, the cells were treated with samples of N^1-methylspermidine, at the following concentrations: 500 nM, 1 μm and 500 μm, 1 mM (final concentration in the culture medium).
α-tocopherol (250 μg/ml, 580 μm) was used as a comparison of the antioxidant activity.
The plates were incubated at 37° C. in 5% CO2 for 1.5 hours. Cells cultured on basal medium with 2.5% FBS were used as a control.
The results are shown in the graph of FIG. 3, wherein N^1-methylspermidine trichydrochloride salt is for brevity indicated as ‘methylspermidine’.

## CN(CCCN)CCCCN [N^1-methylspermidine, N-(3-aminopropyl)-N^1-methyl-1,4-butanediamine]
[1]; 24 hours of treatment (FIG. 2)
  anti-inflammatory effects after 24 hours compared with 16 hours: remain almost unchanged
[1]; 24 hours of treatment, 500 nM (FIG. 2)
  anti-inflammatory effect compared with spermidine: significantly higher anti-inflammatory effect
[1]; 1 nM (FIG. 1)
  TNF-α expression: 7.94%
[1]; 500 nM (FIG. 1)
  TNF-α expression: 1.52%
[1]; all concentrations examined, 16 and 24 hours
  anti-inflammatory effect (TNF-α gene expression): anti-inflammatory effect

## NCCCCNCCCN [spermidine, reference compound]
[1]; 1 nM (FIG. 1)
  TNF-α expression: 13.99%

## CN(CCCN)CCCCN.Cl.Cl.Cl [N-(3-aminopropyl)-N^1-methyl-1,4-butanediamine 3HCl]
[2]
  antioxidant activity compared with α-tocopherol (580 μM): higher antioxidant activity
  decrease in intracellular concentration of ROS produced compared with H2O2 control: decrease substantially comparable

## Cc1c(C)c2c(c(C)c1O)CC[C@@](C)(CCC[C@H](C)CCC[C@H](C)CCCC(C)C)O2 [α-tocopherol, reference compound]
[2]
  decrease in intracellular concentration of ROS produced compared with H2O2 control: decrease substantially comparable
